In ChEMBL document CHEMBL3044751, “Structure-based design, synthesis, and molecular modeling studies of 1-(benzo[d]thiazol-2-yl)-3-(substituted aryl)urea derivatives as novel anti-Parkinsonian agents” (2012) one finds Activity and Time data, which are given here for 21 compounds.

What all share (assay type): functional
What all share (settings): route intraperitoneal

Test [1] deals with Mus musculus. Kind of test: Antiparkinsonian activity against haloperidol-induced catalepsy in Mus musculus Swiss albino (mouse) assessed reduction in catalepsy at 100 mg/kg, ip administered 30 min prior to haloperidol injection measured after 30 to 180 min. Details: scale not given: the % may be the effect or the level left.
Test [2] has as its system Mus musculus. The test can be described thus: Antiparkinsonian activity against haloperidol-induced catalepsy in Mus musculus Swiss albino (mouse) assessed as decrease in mean descent time at 100 mg/kg, ip administered 30 min prior to haloperidol injection measured after 180 min.
For test [3], the system named is Mus musculus. The test can be described thus: Antiparkinsonian activity against haloperidol-induced catalepsy in Mus musculus Swiss albino (mouse) assessed as decrease in mean descent time at 100 mg/kg, ip administered 30 min prior to haloperidol injection measured after 150 min.
The subject of test [4] is Mus musculus. Kind of test: Antiparkinsonian activity against haloperidol-induced catalepsy in Mus musculus Swiss albino (mouse) assessed as decrease in mean descent time at 100 mg/kg, ip administered 30 min prior to haloperidol injection measured after 60 min.
The test system of test [5] is Mus musculus. Kind of test: Antiparkinsonian activity against haloperidol-induced catalepsy in Mus musculus Swiss albino (mouse) assessed as decrease in mean descent time at 100 mg/kg, ip administered 30 min prior to haloperidol injection measured after 30 min.
Test [6] has as its system Mus musculus. The test can be described thus: Antiparkinsonian activity against haloperidol-induced catalepsy in Mus musculus Swiss albino (mouse) assessed as decrease in mean descent time at 100 mg/kg, ip administered 30 min prior to haloperidol injection measured after 90 min.
Test [7] deals with Mus musculus. The test can be described thus: Antiparkinsonian activity against haloperidol-induced catalepsy in Mus musculus Swiss albino (mouse) assessed as decrease in mean descent time at 100 mg/kg, ip administered 30 min prior to haloperidol injection measured after 120 min.
The subject of test [8] is Mus musculus. Kind of test: Antiparkinsonian activity against haloperidol-induced oxidative stress in Mus musculus Swiss albino (mouse) assessed reduction in glutathione level in brain by measuring malondialdehyde level at 100 mg/kg, ip administered 30 min prior to haloperidol injection.
For test [9], the system named is Mus musculus. The test can be described thus: Antiparkinsonian activity against haloperidol-induced oxidative stress in Mus musculus Swiss albino (mouse) assessed reduction in superoxide dismutase activity in brain by measuring malondialdehyde level at 100 mg/kg, ip administered 30 min prior to haloperidol injection by NBT reduction assay.
The test system of test [10] is Mus musculus. Kind of test: Antiparkinsonian activity against haloperidol-induced oxidative stress in Mus musculus Swiss albino (mouse) assessed reduction in lipid peroxidation in brain by measuring malondialdehyde level at 100 mg/kg, ip administered 30 min prior to haloperidol injection by TBARS assay.
Test [11] relates to Mus musculus. The test can be described thus: Antiparkinsonian activity against haloperidol-induced oxidative stress in Mus musculus Swiss albino (mouse) assessed reduction in glutathione peroxidase activity in brain by measuring malondialdehyde level at 100 mg/kg, ip administered 30 min prior to haloperidol injection.

SMILES strings stand for the structures.

Consider `O=C(Nc1nc2ccccc2s1)Nc1ccccc1F`, for which the Activity in [1] is 30.8%. For the same compound, the Time in test [2] was determined as 241 s; in test [3], 223 s; in test [4], 145 s; in test [5] it was 81 s; in test [6], 193 s; in test [7] it was 207 s.

Compound `O=C(Nc1nc2ccccc2s1)Nc1ccccc1Cl` displayed an Activity in test [1] of 37.1%. Besides, the Time in [2] amounted to 289 s; in test [3] it was 212 s; in test [4], 98 s; in test [5], 57 s; in [6] it was 134 s; in test [7] it was 205 s.

Compound `O=C(Nc1nc2ccccc2s1)Nc1cc(C(F)(F)F)ccc1Cl` gave an Activity in test [1] of 56.3%. For the same compound, the Time amounted to 173 s in test [2]; 129 s in [3]; 89 s in test [4]; 77 s in test [5]; 114 s in test [6]; 118 s in test [7].

Regarding `Cc1ccc(NC(=O)Nc2nc3ccccc3s2)cc1`, the Activity in [1] is recorded as 47.2%. Further, the Time in test [2] is given as 185 s; in test [3], 171 s; in [4] it was 97 s; in test [5], 72 s; in test [6], 155 s; in test [7] it was 160 s.

`Nc1nc2c(cnn2CCc2ccccc2)c2nc(-c3ccco3)nn12` [SCH-58261]: the Activity in test [1] stood at 86.4%. Moreover, the Time in test [2] is given as 72 s; in [3] it was 58 s; in test [4] it was 19 s; in test [5], 11 s; in [6], 36 s; in test [7], 45 s.

On to `O=C(Nc1ccc(F)cc1)Nc1nc2ccccc2s1`, for which, in test [1], the Activity stood at 29.8%. Also, the Time in test [2] is 263 s; in [3] it was 234 s; in test [4] it was 131 s; in [5], 70 s; in test [6] it was 188 s; in [7], 219 s.

Regarding `COc1ccc(NC(=O)Nc2nc3ccccc3s2)cc1`, the Activity in [1] is 53.1%. Besides, the Time in test [2] was found to be 181 s; in test [3], 180 s; in test [4] it was 69 s; in [5] it was 43 s; in test [6], 117 s; in [7], 160 s.

Take `O=C(Nc1ccc([N+](=O)[O-])cc1)Nc1nc2ccccc2s1`: the Activity in [1] came to 30.5%. For the same compound, the Time in test [2] is reported as 253 s; in [3], 234 s; in test [4], 138 s; in test [5], 90 s; in test [6], 181 s; in test [7] it was 199 s.

With `COc1ccccc1NC(=O)Nc1nc2ccccc2s1`, the Activity in test [8] was 12.34 µg/g; in test [1], 75.9%; in test [9] it was 2.12 U/mg; in test [10], 2.99 nmol/mg; in [11], 1.65 U/g. For the same compound, the Time in [2] was 103 s; in test [3] it was 95 s; in test [4], 34 s; in test [5], 32 s; in [6], 65 s; in test [7] it was 72 s.

Regarding `Cc1ccccc1NC(=O)Nc1nc2ccccc2s1`, the Activity in test [1] was found to be 46.9%. Moreover, the Time in [2] is listed as 198 s; in test [3] it was 180 s; in test [4] it was 101 s; in [5], 66 s; in test [6], 134 s; in test [7] it was 166 s.

In test [1], `O=C(Nc1nc2ccccc2s1)Nc1ccccc1Br` had an Activity of 36.7%. The Time in [2] came out at 224 s; in [3] it was 201 s; in test [4], 128 s; in test [5], 118 s; in test [6] it was 156 s; in [7] it was 173 s.

Turning to `O=C(CCCN1CCC(O)(c2ccc(Cl)cc2)CC1)c1ccc(F)cc1` [HALOPERIDOL], the Activity amounted to 5.57 µg/g in test [8], 0.85 U/mg in test [9], 4.92 nmol/mg in test [10] and 0.68 U/g in test [11]. Further, the Time in test [2] is reported as 300 s; in test [3] it was 300 s; in [4], 242 s; in [5], 155 s; in test [6], 264 s; in test [7] it was 300 s.

Turning to `COc1cc(NC(=O)Nc2nc3ccccc3s2)cc(OC)c1OC`, the Activity in [1] is recorded as 70.1%. Further, the Time in test [2] is reported as 122 s; in [3], 115 s; in test [4], 46 s; in [5] it was 37 s; in test [6], 81 s; in test [7], 89 s.

`O=C(NCc1ccco1)Nc1nc2ccccc2s1`: the Activity came to 16.53 µg/g in test [8]; 77.3% in test [1]; 1.87 U/mg in test [9]; 3.12 nmol/mg in [10]; 1.36 U/g in test [11]. Besides, the Time in test [2] is given as 95 s; in test [3], 85 s; in test [4], 29 s; in test [5], 18 s; in [6], 72 s; in test [7] it was 81 s.

Turning to `O=C(Nc1nc2ccccc2s1)Nc1ccccc1[N+](=O)[O-]`, the Activity in test [1] stood at 71.4%. Also, the Time in test [2] worked out at 130 s; in test [3], 99 s; in [4], 56 s; in [5], 23 s; in test [6] it was 77 s; in [7], 85 s.

In test [1], `O=C(Nc1cccc(Cl)c1)Nc1nc2ccccc2s1` returned an Activity of 35.6%. The Time in test [2] was determined as 230 s; in test [3], 191 s; in test [4], 144 s; in test [5], 101 s; in [6] it was 169 s; in test [7], 182 s.

`O=C(Nc1ccc(Oc2ccccc2)cc1)Nc1nc2ccccc2s1` gave an Activity in [1] of 50.5%. Moreover, the Time in [2] is 196 s; in [3], 189 s; in [4], 67 s; in test [5], 51 s; in test [6], 126 s; in [7], 161 s.

In turn, `N[C@@H](Cc1ccc(O)c(O)c1)C(=O)O` [LEVODOPA] returned an Activity in test [1] of 65.6%. Moreover, the Time in [2] worked out at 137 s; in test [3] it was 122 s; in test [4], 49 s; in test [5], 32 s; in test [6], 99 s; in test [7], 119 s.

In turn, `O=C(Nc1ccc(Cl)cc1)Nc1nc2ccccc2s1` returned an Activity in [1] of 37.4%. Further, the Time came to 220 s in [2]; 207 s in test [3]; 129 s in [4]; 78 s in [5]; 166 s in test [6]; 190 s in [7].

In turn, `COc1ccc(NC(=O)Nc2nc3ccccc3s2)c(OC)c1` showed an Activity in test [1] of 69.8%. For the same compound, the Time in test [2] stood at 149 s; in [3] it was 107 s; in test [4] it was 41 s; in [5], 26 s; in test [6], 78 s; in test [7], 94 s.

The compound `O=C(Nc1ccc(Br)cc1)Nc1nc2ccccc2s1` registered an Activity in [1] of 35.4%. Besides, the Time in test [2] came to 216 s; in [3], 211 s; in test [4], 132 s; in [5], 87 s; in [6] it was 178 s; in test [7], 196 s.
